According to patent US5686486A, “4-hydroxy-benzopyran-2-ones and 4-hydroxy-cycloalkyl[b]pyran-2-ones useful to treat retroviral infections” (priority 1995, dated 1997):
pIC50: −log10 of the molar value. Several values for one entry are separate records, joined by “and”; a condition that tells them apart may be missing. Identical values can stand only once. Counter-ions that a name gives are not always drawn. Like-named read-outs stand apart in the source and are kept apart here.

Target: HIV-1 protease (Human immunodeficiency virus type 1 group M subtype B, UniProt P04585)
Experiment: biochemical
Conditions: for inhibition at 20 µM: read-out: HIV-1 Protease % Inhib, dose 20.000 uM; for inhibition at 200 µM: read-out: HIV-1 Protease % Inhib, dose 200.000 uM; for pIC50: HIV-1 Protease IC50
Protocol: The HIV protease screening assay is based on fluorescently labeled substrate which can be resolved from nonlabeled cleavage product using special beads coated with streptavidin. The substrate is biotinylated at the amino terminal arginine and fluorescently labeled with fluorescein isothiocynate (FITC) at the carboxyl terminal lysine. This assay has been employed to detect novel, nonpeptidic inhibitors of HIV-1 protease. Substrate (20 μl of 0.2 μM), sample (10 μl of desired concentration), and enzyme (10 μl of 0.1 μM) are added to a 96 well pandex plate. The assay is run in 0.1M sodium acetate buffer at pH 5.5 in the presence of 1.0M sodium chloride and 0.05% NP-40 with incubated in the dark for one hour at room temperature. Strepavidin coated polystyrene beads {40 μl of 0.1% (w/v)} are added and the plate is incubated in the dark for an additional half hour. The labeled cleavage product is separated from the unreacted substrate via filtration and is read on the Idexx screen machine. The data are analyzed by appropriate computer algorithms to ascertain percent inhibition values.

[1] = read-out: HIV-1 Protease % Inhib, dose 10.000 uM
[2] = read-out: HIV-1 Protease % Inhib, dose 100.000 uM
[3] = dose 1.000 uM, read-out: HIV-1 Protease % Inhib
[4] = dose 10.000 uM, read-out: HIV-1 Protease % Inhib
[5] = dose 100.000 uM, read-out: HIV-1 Protease % Inhib
[6] = read-out: HIV-1 Protease % Inhib, dose 1.000 uM

For `O=c1oc2ccccc2c(O)c1CCc1ccccc1` [Example 1, 4-Hydroxy-3-phenethylcoumarin], the inhibition at 10 µM [1] was 15.3%, the inhibition at 20 µM was 51.6% and the inhibition at 100 µM [2] was 66.9%. It also gave an inhibition at 200 µM of 92.8%.
`O=c1oc2ccccc2c(O)c1CCCc1ccccc1` [Example 2, 4-Hydroxy-3-(3-phenylpropyl)coumarin] was tested, and the inhibition at 10 µM [1] was 15.6%, the inhibition at 20 µM was 48.1% and the inhibition at 100 µM [2] was 63.6%. It also gave an inhibition at 200 µM of 97.5%.
`O=c1oc2ccccc2c(O)c1Cc1ccc2ccccc2c1` [Example 3, 4-Hydroxy-3-(2-naphthylmethyl)coumarin] was tested, and the inhibition at 1 µM [3] was < 10%, the inhibition at 10 µM [4] was < 10% and the inhibition at 100 µM [5] was 48.8%.
`O=c1oc2ccccc2c(O)c1CC(c1ccccc1)c1ccccc1` [Example 4, 4-Hydroxy-3-(2,2-diphenylethyl)-coumarin] was tested, and the inhibition at 1 µM [6] was < 10%, the inhibition at 10 µM [1] was 12.4% and the inhibition at 100 µM [2] was 45.3%.
Molecule `CC(Cc1c(O)c2ccccc2oc1=O)c1ccccc1` (centres unmarked) [Example 5, 4-Hydroxy-3-(2-phenylpropyl)coumarin] has an inhibition at 1 µM [6] of 15.4%, an inhibition at 10 µM [1] of 55.4% and an inhibition at 100 µM [2] of 95%.
`CC(c1ccccc1)c1c(O)c2ccccc2oc1=O` (stereo not drawn) [Example 6, 4-Hydroxy-3-(α-methylbenzyl)-coumarin] was tested, and the inhibition at 10 µM [1] was 29.2%, the inhibition at 20 µM was 65.6% and the inhibition at 100 µM [2] was 88.5%. It also gave an inhibition at 200 µM of 75.2%.
For `O=c1oc2ccccc2c(O)c1C(c1ccccc1)c1ccccc1` [Example 7, 4-Hydroxy-3-diphenylmethylcoumarin], the pIC50 was 4.67, the inhibition at 1 µM [6] was < 10% and the inhibition at 10 µM [1] was 42.5%. For the same molecule, the inhibition at 100 µM [2] was 96.3%.
For `CC(O)CC(c1ccccc1)c1c(O)c2ccccc2oc1=O` (centres unmarked) [Example 8, 4-Hydroxy-3-(3-hydroxy-1-phenylbutyl)-coumarin], the pIC50 was 4.38, the inhibition at 1 µM [6] was < 10% and the inhibition at 10 µM [1] was 23.7%. The inhibition at 100 µM [2] was 93.3%.
In the case of `CC(C)C(c1ccccc1)c1c(O)c2ccccc2oc1=O` (centres unmarked) [Example 9, 4-Hydroxy-3-(2-methyl-1-phenylpropyl)-coumarin], the pIC50 was 4.98, the inhibition at 1 µM [6] was 12.1% and the inhibition at 10 µM [1] was 65%. The inhibition at 100 µM [2] was 98.3%.
In the case of `CC(C)C(c1ccc(Br)cc1)c1c(O)c2ccccc2oc1=O` (centres unmarked) [Example 12, 3-(1-(4-Bromophenyl)-2-methylpropyl)-4-hydroxycoumarin], the pIC50 was 4.92, the inhibition at 0.098 µM (read-out: HIV-1 Protease % Inhib, dose 0.098 uM) was < 10% and the inhibition at 0.196 µM (read-out: HIV-1 Protease % Inhib, dose 0.196 uM) was < 10%. The inhibition at 0.39 µM (read-out: HIV-1 Protease % Inhib, dose 0.390 uM) was < 10%, the inhibition at 0.78 µM (read-out: HIV-1 Protease % Inhib, dose 0.780 uM) was 14% and the inhibition at 1.56 µM (read-out: HIV-1 Protease % Inhib, dose 1.560 uM) was 17.1%. For the same molecule, the inhibition at 3.13 µM (read-out: HIV-1 Protease % Inhib, dose 3.130 uM) was 25.4%, the inhibition at 6.25 µM (read-out: HIV-1 Protease % Inhib, dose 6.250 uM) was 31.9% and the inhibition at 12.5 µM (read-out: HIV-1 Protease % Inhib, dose 12.500 uM) was 53.8%. It also gave an inhibition at 25 µM (read-out: HIV-1 Protease % Inhib, dose 25.000 uM) of 66.5%, an inhibition at 50 µM (read-out: HIV-1 Protease % Inhib, dose 50.000 uM) of 74.7% and an inhibition at 100 µM [2] of 87.4%. It also gave an inhibition at 200 µM of 87%.
`O=c1oc2ccccc2c(O)c1C(Cc1ccccc1)c1ccccc1` (centres unmarked) [Example 13, 3-(1,2-Diphenylethyl)4-hydroxycoumarin] was tested, and the inhibition at 1 µM [6] was < 10%, the inhibition at 10 µM [1] was 34.7% and the inhibition at 100 µM [2] was 74.6%.
`CC(C)CC(c1ccccc1)c1c(O)c2ccccc2oc1=O` (centres unmarked) [Example 14, 4-Hydroxy-3-(3-methyl-1-phenylbutyl)-coumarin] gave an inhibition at 1 µM [6] of 32.2%, an inhibition at 10 µM [1] of 64.6% and an inhibition at 100 µM [2] of 87.1%.
`O=c1oc2ccccc2c(O)c1C(c1ccccc1)C1CC1` (centres unmarked) [Example 15, 3-(Cyclopropylphenylmethyl)-4-hydroxycoumarin] showed a pIC50 of 5.90, an inhibition at 1 µM [6] of 43.8% and an inhibition at 10 µM [1] of 89.6%.
`O=c1oc2ccccc2c(O)c1C(CCc1ccccc1)c1ccccc1` (centres unmarked) [Example 16, 4-Hydroxy-3-(1,3-diphenylpropyl)-coumarin] was tested, and the inhibition at 1 µM [6] was < 10% and the inhibition at 10 µM [1] was 48.3%.
For `O=c1oc2ccccc2c(O)c1C(CC1CCCCC1)c1ccccc1` (centres unmarked) [Example 17, 3-(2-Cyclohexyl-1-phenylethyl)-4-hydroxycoumarin], the inhibition at 1 µM [6] was < 10% and the inhibition at 10 µM [1] was 27.6%.
For `CCCC(c1ccc(C)cc1)c1c(O)c2ccccc2oc1=O` (centres unmarked) [Example 18, 4-Hydroxy-3-(1-(4-methylphenyl)-butyl)-coumarin], the inhibition at 1 µM [6] was 13.4% and the inhibition at 10 µM [1] was 52.5%.
For `CCCC(c1ccc(CC)cc1)c1c(O)c2ccccc2oc1=O` (centres unmarked) [Example 19, 3-(1-(4-Ethylphenyl)-butyl)-4-hydroxycoumarin], the inhibition at 1 µM [6] was < 10% and the inhibition at 10 µM [1] was 36.8%.
For `CCC(c1c(O)c2ccccc2oc1=O)c1cccc2ccccc12` (centres unmarked) [Example 20, 4-Hydroxy-3-(1-(1-naphthyl)-propyl)-coumarin], the inhibition at 1 µM [6] was < 10%, the inhibition at 10 µM [1] was 20.3% and the inhibition at 100 µM [2] was 79.8%.
In the case of `O=c1oc2ccccc2c(O)c1C(=Cc1ccccc1)c1ccccc1` [Example 21, 3-(1,2-Diphenylethenyl)4-hydroxycoumarin], the inhibition at 1 µM [3] was < 10%, the inhibition at 10 µM [4] was 12.1% and the inhibition at 100 µM [5] was 74.3%.
In the case of `CC(c1cccc(C(=O)NCC(=O)OC(C)(C)C)c1)c1c(O)c2ccccc2oc1=O` (centres unmarked) [Example 22, 4-Hydroxy-3-[1-[3-[[[(1,1-dimethylethoxycarbonyl)methyl]amino]carbonyl]phenyl]ethyl]-coumarin], the inhibition at 1 µM [6] was < 10%, the inhibition at 10 µM [1] was < 10% and the inhibition at 100 µM [2] was 58.7%.
With `CCC(c1cccc(NC(=O)CCNC(=O)OC(C)(C)C)c1)c1c(O)c2ccccc2oc1=O` (centres unmarked) [Example 23, 4-Hydroxy-3-[1-[3-[[3-[(1,1-dimethylethoxycarbonyl)amino]-1-oxopropyl]amino]phenyl]propyl]-coumarin] the pIC50 was 6.18 and 6.15, the “HIV-1 Protease % Inhib” value (dose 100.000 uM) was 104.2% and the inhibition at 1 µM [6] was 46.6%. It also gave an inhibition at 10 µM [1] of 96.6% and an inhibition at 100 µM [2] of 104%.
For `CCC(c1cccc(NC(=O)CCN)c1)c1c(O)c2ccccc2oc1=O` (centres unmarked) [Example 24, 3-[1-[3-[(3-Amino-1-oxopropyl)amino]phenyl]propyl]-4-hydroxy-coumarin, trifluoroacetate (salt)], the inhibition at 1 µM [6] was < 10%, the inhibition at 10 µM [1] was 24.2% and the inhibition at 100 µM [2] was 83.7%.
`CCC(c1cccc(NC(=O)CCc2ccccc2)c1)c1c(O)c2ccccc2oc1=O` (centres unmarked) [Example 25, 4-Hydroxy-3-[1-[3-[(1-oxo-3-phenylpropyl)amino]phenyl]propyl]-coumarin] gave a pIC50 of 5.28, an inhibition at 1 µM [6] of 11.4% and an inhibition at 10 µM [1] of 78.6%. The inhibition at 100 µM [2] was 115%.
`CC(c1cccc(C(=O)NCc2nc3ccccc3[nH]2)c1)c1c(O)c2ccccc2oc1=O` (centres unmarked) [Example 26, Coumarin, 3-[1-[3-[[[(2-benzimidazo131)methyl]amino]carbonyl]phenyl]ethyl]-4-hydroxy] was tested, and the pIC50 was 4.69, the “HIV-1 Protease % Inhib” value (dose 100.000 uM) was 80% and the inhibition at 1 µM [6] was < 10%. It also gave an inhibition at 10 µM [1] of 53.6% and an inhibition at 100 µM [2] of 95%.
For `CC(c1cccc(C(=O)NCc2ccccn2)c1)c1c(O)c2ccccc2oc1=O` (centres unmarked) [Example 27, Coumarin, 4-hydroxy-3-[1-[3-[[[(2-pyridinyl)methyl]amino]carbonyl]phenyl]ethyl]-], the inhibition at 1 µM [6] was < 10%, the inhibition at 10 µM [1] was < 10% and the inhibition at 100 µM [2] was 72%.
`CC(c1cccc(C(=O)NCc2ccccc2)c1)c1c(O)c2ccccc2oc1=O` (centres unmarked) [Example 28, Coumarin, 4-hydroxy-3-[1-[3-[[(phenylmethyl)amino]carbonyl]phenyl]ethyl]-] was tested, and the inhibition at 1 µM [6] was < 10%, the inhibition at 10 µM [1] was 17.9% and the inhibition at 100 µM [2] was 81%.
With `CC(c1cccc(C(=O)NC2c3ccccc3CC2O)c1)c1c(O)c2ccccc2oc1=O` (centres unmarked) [Example 29, Benzamide, N-(2,3-dihydro-2-hydroxy-1H-inden-1-yl)-3-[1-(4-hydroxy-2-oxo-2H-1-benzopyran-3-yl)ethyl]-] the inhibition at 1 µM [6] was < 10%, the inhibition at 10 µM [1] was 54.2% and the inhibition at 100 µM [2] was 98.4%.
With `CCC(C)C(NC(=O)c1cccc(C(C)c2c(O)c3ccccc3oc2=O)c1)C(=O)NCc1ccccn1` (centres unmarked) [Example 30, Benzamide, 3-[1-(4-hydroxy-2-oxo-2H-1-benzopyran-3-yl)ethyl]-N-[2-methyl-1-[[(2-pyridinylmethyl)amino]carbonyl]butyl]-] the inhibition at 1 µM [6] was < 10%, the inhibition at 10 µM [1] was 65.3% and the inhibition at 100 µM [2] was 109%.
`CCCCNC(=O)c1cccc(C(C)c2c(O)c3ccccc3oc2=O)c1` (centres unmarked) [Example 31, Coumarin, 3-[1-[3-[(butylamino)carbonyl]phenyl]ethyl]-4-hydroxy-] was tested, and the inhibition at 1 µM [6] was < 10%, the inhibition at 10 µM [1] was < 10% and the inhibition at 100 µM [2] was 53.7%.
With `CC(c1cccc(C(=O)NCC(=O)N2CCOCC2)c1)c1c(O)c2ccccc2oc1=O` (centres unmarked) [Example 32, Coumarin, 4-hydroxy-3-[1-[3-[[[[(4-morpholino)carbonyl]methyl]amino]carbonyl]phenyl]ethyl]-] the inhibition at 1 µM [6] was < 10%, the inhibition at 10 µM [1] was < 10% and the inhibition at 100 µM [2] was 46.5%.
